Results: patent US20250360109A1, “COMPOSITIONS AND METHODS FOR TREATING DEPRESSION IN FEMALES” (priority 2022, published 2025)

Test system: adult subjects with major depressive disorder (MDD)
Assay: Phase 2 placebo-controlled study in MDD, Montgomery-Asberg Depression Rating Scale (MADRS) total score
Format: in vivo, human
Conditions: for Change from Baseline, MADRS Total at Week 1, LSM Difference (95% CI) / Change from Baseline, MADRS Total at Week 2, LSM Difference (95% CI) / Change from Baseline, MADRS Total at Week 3, LSM Difference (95% CI) / Change from Baseline, MADRS Total at Week 4, LSM Difference (95% CI): 20 mg/day vs Placebo, MMRM; for Change from Baseline, MADRS Total at Week 1, LSM Difference (95% CI) / Change from Baseline, MADRS Total at Week 2, LSM Difference (95% CI) / Change from Baseline, MADRS Total at Week 3, LSM Difference (95% CI) / Change from Baseline, MADRS Total at Week 4, LSM Difference (95% CI) / Change from Baseline, MADRS Total at Week 1, Mean (SD) / Change from Baseline, MADRS Total at Week 1, Median / Change from Baseline, MADRS Total at Week 2, Mean (SD) / Change from Baseline, MADRS Total at Week 2, Median / Change from Baseline, MADRS Total at Week 3, Mean (SD) / Change from Baseline, MADRS Total at Week 3, Median / Change from Baseline, MADRS Total at Week 4, Mean (SD) / Change from Baseline, MADRS Total at Week 4, Median / MADRS Total at Week 1, Mean (SD) / MADRS Total at Week 1, Median / MADRS Total at Week 2, Mean (SD) / MADRS Total at Week 2, Median / MADRS Total at Week 3, Mean (SD) / MADRS Total at Week 3, Median / MADRS Total at Week 4, Mean (SD) / MADRS Total at Week 4, Median: mITT; for Change from Baseline, MADRS Total at Week 1, Mean (SD) / Change from Baseline, MADRS Total at Week 1, Median / Change from Baseline, MADRS Total at Week 2, Mean (SD) / Change from Baseline, MADRS Total at Week 2, Median / Change from Baseline, MADRS Total at Week 3, Mean (SD) / Change from Baseline, MADRS Total at Week 3, Median / Change from Baseline, MADRS Total at Week 4, Mean (SD) / Change from Baseline, MADRS Total at Week 4, Median / MADRS Total at Week 1, Mean (SD) / MADRS Total at Week 1, Median / MADRS Total at Week 2, Mean (SD) / MADRS Total at Week 2, Median / MADRS Total at Week 3, Mean (SD) / MADRS Total at Week 3, Median / MADRS Total at Week 4, Mean (SD) / MADRS Total at Week 4, Median: 20 mg/day
Protocol: A Phase 2, multicenter, double-blind, randomized, placebo-controlled study of the safety and efficacy of SP-624 in the treatment of adult subjects with major depressive disorder (MDD) as defined by the Diagnostic and Statistical Manual of Mental Disorders, Fifth Edition (DSM-5) was carried out. Following the successful completion of a Screening Phase, subjects were randomized to one of two treatment groups in a 1:1 ratio and received Compound 1 (SP-624) or placebo over a treatment period of four weeks (Treatment Group #1: SP-624 20 mg/day; Treatment Group #2: Placebo).
Prior to initiating the 4-week treatment period, subjects completed a Screening/Baseline period of up to 28 days, during which time all screening assessments were performed, and any current depression medications discontinued. All screening assessments were completed before discontinuing any current depression medications. Subjects returned for a Baseline Visit to complete efficacy and safety assessments. During the treatment period, subjects returned to the investigative site to complete efficacy and safety assessments at the end of Weeks 1, 2, 3, and 4. After the final dose of study drug, subjects completed a follow-up period of two weeks and returned at the end of Weeks 5 and 6. Subjects may be treated with anti-depressant medications according to physician recommendations after completion of the Week 5 Visit.
Each dose of Compound 1 was supplied as two capsules, each containing 10 mg of active pharmaceutical ingredient (API). Matching placebo capsules identical in shape and color to the active capsules were used.
The primary efficacy endpoint was Change from Baseline to Week 4 in Montgomery-Asberg Depression Rating Scale (MADRS) total score.
Secondary efficacy endpoints included: • Change from Baseline to Weeks 1, 2, and 3 in MADRS total score, • Change from Baseline to Weeks 1, 2, 3, and 4 in Clinical Global Impression-Severity (CGI-S) total score, • Change from Baseline to Week 5 and change from Week 4 to Week 5 in MADRS total score and CGI-S total score, • Change from Baseline to Week 2 and Week 4 in the 17-item Hamilton Depression Rating Scale (HAM D-17) total score, • Change from Baseline to Week 2 and Week 4 in the Sheehan Disability Scale (SDS), • Change from Baseline to Week 2 and Week 4 in the Quick Inventory of Depressive Symptomology-Self Report (QIDS-SR), and • Change from Baseline to Week 2 and Week 4 in the Quality of Life Enjoyment and Satisfaction Questionnaire-Short Form (Q-LES-Q-SF).

SMILES: COC1=CC(=O)C[C@@H](C)[C@]12Oc1c(Cl)c(-c3nnc(C)o3)cc(OC)c1C2=O [SP-624, (2S,6′R)-7-Chloro-2′,4-dimethoxy-6′-methyl-6-(5-methyl-1,3,4-oxadiazol-2-yl)-3H-spiro[1-benzofuran-2,1′-cyclohex [2]ene]-3,4′-dione]
- Change from Baseline, MADRS Total at Week 1, LSM Difference (95% CI) (Female): −0.9 (−2.8, 1.1)
- Change from Baseline, MADRS Total at Week 2, LSM Difference (95% CI) (Female): −1.9 (−4.3, 0.5)
- Change from Baseline, MADRS Total at Week 3, LSM Difference (95% CI) (Female): −3.5 (−6.2, −0.8)
- Change from Baseline, MADRS Total at Week 4, LSM Difference (95% CI) (Female): −3.9 (−6.8, −1.0)
- Change from Baseline, MADRS Total at Week 1, Mean (SD) (Female): −6.6 (6.19)
- Change from Baseline, MADRS Total at Week 1, Median (Female): −6
- Change from Baseline, MADRS Total at Week 2, Mean (SD) (Female): −10.1 (8.20)
- Change from Baseline, MADRS Total at Week 2, Median (Female): −8
- Change from Baseline, MADRS Total at Week 3, Mean (SD) (Female): −12.5 (9.74)
- Change from Baseline, MADRS Total at Week 3, Median (Female): −11
- Change from Baseline, MADRS Total at Week 4, Mean (SD) (Female): −13.5 (10.40)
- Change from Baseline, MADRS Total at Week 4, Median (Female): −13
- MADRS Total at Week 1, Mean (SD) (Female): 26.7 (8.10)
- MADRS Total at Week 1, Median (Female): 27
- MADRS Total at Week 2, Mean (SD) (Female): 23.1 (8.76)
- MADRS Total at Week 2, Median (Female): 25
- MADRS Total at Week 3, Mean (SD) (Female): 20.8 (10.11)
- MADRS Total at Week 3, Median (Female): 21
- MADRS Total at Week 4, Mean (SD) (Female): 19.8 (10.75)
- MADRS Total at Week 4, Median (Female): 21
- Change from Baseline, MADRS Total at Week 1, LSM Difference (95% CI) (Male): 0.7 (−2.7, 4.1)
- Change from Baseline, MADRS Total at Week 2, LSM Difference (95% CI) (Male): −0.7 (−4.1, 2.8)
- Change from Baseline, MADRS Total at Week 3, LSM Difference (95% CI) (Male): 2.2 (−1.3, 5.8)
- Change from Baseline, MADRS Total at Week 4, LSM Difference (95% CI) (Male): 2.7 (−0.8, 6.3)
- Change from Baseline, MADRS Total at Week 1, Mean (SD) (Male): −6.6 (7.04)
- Change from Baseline, MADRS Total at Week 1, Median (Male): −5
- Change from Baseline, MADRS Total at Week 2, Mean (SD) (Male): −9.8 (8.94)
- Change from Baseline, MADRS Total at Week 2, Median (Male): −9
- Change from Baseline, MADRS Total at Week 3, Mean (SD) (Male): −10.6 (9.28)
- Change from Baseline, MADRS Total at Week 3, Median (Male): −9
- Change from Baseline, MADRS Total at Week 4, Mean (SD) (Male): −11.4 (9.44)
- Change from Baseline, MADRS Total at Week 4, Median (Male): −10
- MADRS Total at Week 1, Mean (SD) (Male): 25.5 (7.31)
- MADRS Total at Week 1, Median (Male): 26
- MADRS Total at Week 2, Mean (SD) (Male): 22.6 (9.35)
- MADRS Total at Week 2, Median (Male): 24
- MADRS Total at Week 3, Mean (SD) (Male): 21.4 (9.60)
- MADRS Total at Week 3, Median (Male): 22
- MADRS Total at Week 4, Mean (SD) (Male): 20.8 (9.61)
- MADRS Total at Week 4, Median (Male): 21
- lowering the MADRS score by an average of (females, therapeutically effective): 3.9 points
